Where “and” joins values, the source holds several entries; their conditions need not be identical. Identical values can stand only once. Entries after “also recorded” stand apart in the source; their conditions may differ. Like-named read-outs stand apart in the source and are kept apart here.
What was measured:
[1] = cited from earlier work
[2] = test system: nucleoside transporters (CNT1, CNT3, ENT1, ENT2); assay: Inhibition; assay type: in vivo, C57BL/6 mice
ENT1 and ENT2 = assay type: in vivo, C57BL/6 mice; conditions: 5 μM [14C]-gemcitabine, 90 min perfusion, 2 mM dilazep
hCNT1 = conditions: read-out: Km for gemcitabine transport; Xenopus laevis oocytes; cited from earlier work
[3] = In situ single-pass jejunal perfusion of gemcitabine; assay type: in vivo, BALB/c mice; conditions: female, BALB/c, mouse, other: in situ single-pass jejunal perfusion, pH 6
[4] = as above; assay type: in vivo, C57BL/6 mice; conditions: for Papp at 90 min, 100 μM: pH 6, effective permeability (Peff)
[5] = 100 μM gemcitabine, female BALB/c mice, corrected for cytosine; cited from earlier work
hCNT3 = conditions: read-out: Km for gemcitabine transport; Xenopus laevis oocytes; cited from earlier work
[6] = mice, cited from earlier work
hENT1 = conditions: read-out: Km for gemcitabine transport; Xenopus laevis oocytes; cited from earlier work
hENT2 = conditions: read-out: Km for gemcitabine transport; Xenopus laevis oocytes; cited from earlier work
[7] = 5 μM gemcitabine co-perfused with 2 mM inhibitor, sodium-containing buffer
[8] = from intrinsic clearance Vmax/Km, linear conditions
[9] = jejunal flux, 0.5 μM to 2 mM, fit to two Michaelis-Menten terms

CC1=C(C(=O)O)N2C(=O)[C@@H](NC(=O)[C@H](N)c3ccc(O)cc3)[C@H]2SC1 [cefadroxil]
in situ jejunal permeability (Peff) [1]: 0.6-0.8 × 10^−4 cm/s

COc1cc(C(=O)OCCCN2CCCN(CCCOC(=O)c3cc(OC)c(OC)c(OC)c3)CC2)cc(OC)c1OC [dilazep]
reduction of jejunal permeability of gemcitabine [2, 7]: about 50% | residual permeability of gemcitabine [2, 7]: 50.2% | effect on total gemcitabine radioactivity in intestinal (jejunal) tissue (ENT1 and ENT2): not altered; also recorded: no change | total gemcitabine radioactivity in portal venous plasma, % control (ENT1 and ENT2): 32.5%

Nc1ccn([C@@H]2O[C@H](CO)[C@@H](O)C2(F)F)c(=O)n1 [gemcitabine, 2′,2′-difluoro-2′-deoxycytidine]
Km (hCNT1): ~25 µM | Papp at 90 min, 100 μM [3]: 109 ± 13 ×10⁻⁶ cm/s | residual permeability of gemcitabine ([2]; 5 μM gemcitabine in sodium-free buffer (inhibits CNT1 and CNT3)): 31.7% | jejunal uptake mediated by nucleoside transporters ([2]; C57BL/6 mice): ~ 95% | effective permeability (Peff) ([4]; 100 μM gemcitabine, jejunum, C57BL/6 mice, analyzed by UPLC): 110 ×10⁻⁶ cm/s | Papp at 90 min, 100 μM ([4]; both, C57BL/6, mouse, other: in situ single-pass jejunal perfusion, 100 μM [14C]-gemcitabine, jejunum, C57BL/6 mice, analyzed by radioactivity): 105 ×10⁻⁶ cm/s | Papp at 90 min, 100 μM ([4]; both, C57BL/6, mouse, other: in situ single-pass jejunal perfusion, 100 μM gemcitabine, jejunum, C57BL/6 mice, analyzed by UPLC): 114 ×10⁻⁶ cm/s | Papp at 90 min, 5 μM ([4]; both, C57BL/6, mouse, other: in situ single-pass jejunal perfusion, pH 6, in situ jejunal permeability, 5 μM gemcitabine, C57BL/6 mice): 150 to 190 ×10⁻⁶ cm/s | predicted contribution of the high-affinity transport system to uptake [4, 8]: 72% | predicted contribution of the low-affinity transport system to uptake [4, 8]: 28% | Vmax,1 (high-affinity, low-capacity transport system) [4, 9]: 3.6 pmol/cm^2/s and 3.6 ± 2.1 pmol/cm^2/s | Vmax,2 (low-affinity, high-capacity transport system) [4, 9]: 35.9 pmol/cm^2/s and 35.9 ± 5.5 pmol/cm^2/s | Km ([4]; read-out: Km,1 (high-affinity, low-capacity transport system), jejunal flux, 0.5 μM to 2 mM, fit to two Michaelis-Menten terms): 27.4 ± 13.9 µM | Km ([4]; read-out: Km,2 (low-affinity, high-capacity transport system), jejunal flux, 0.5 μM to 2 mM, fit to two Michaelis-Menten terms): 700 ± 330 µM | Peff [5]: 2 ×10⁻⁶ cm/s | Km (hCNT3): ~60 µM | oral bioavailability ([6]; gemcitabine alone): 10% | oral bioavailability ([6]; with tetrahydrouridine (cytidine deaminase inhibitor)): 40% | Km (hENT1): ~160 µM | Km (hENT2): ~750 µM

NCC(=O)CCC(=O)O [5-aminolevulinic acid]
in situ jejunal permeability (Peff) [1]: 0.00019 cm/s

Cc1cn([C@H]2C[C@H](O)[C@@H](CO)O2)c(=O)[nH]c1=O [thymidine]
reduction of jejunal permeability of gemcitabine [2, 7]: about 95% | residual permeability of gemcitabine [2, 7]: 4.6%

CC(C)[C@H](N)C(=O)OCCOCn1cnc2c(=O)[nH]c(N)nc21 [valacyclovir]
in situ jejunal permeability (Peff) [1]: 9e-05 cm/s

Nc1cc[nH]c(=O)n1 [Cytosine, cytosine]
cytosine in outlet samples ([4]; perfusion of 100 μM gemcitabine, C57BL/6 and BALB/c mice): absent

glycylsarcosine
in situ jejunal permeability (Peff) ([1]; mouse): 0.00017 cm/s

From paper PMC6733655 (Biochemical pharmacology, 2019)
